According to PubChem BioAssay AID1549 (Sanford-Burnham Center for Chemical Genomics, 2009):
Active and inactive are the calls of the source. The rule behind the calls is not given here.

Molecular target: Influenza A virus M2 proton channel (A/TW/4845/1999 H1N1)
Experiment: NMR binding screen, influenza A virus M2 proton channel, Kd (AID 1549)
Settings: M2 protein

Row | SMILES | Kd
1 | Cc1csc(SCC(=O)N2CCCC2)n1 | > 4 mM (inactive)
2 | Cc1cc(C)n2nc(C(=O)NCc3ccco3)nc2n1 | > 4 mM (inactive)
3 | Cn1c(C(=O)O)ccc1S(N)(=O)=O | > 4 mM (inactive)
4 | NC(=O)CSc1ncnc2ccccc12 | > 4 mM (inactive)
5 | OCc1ccc2ncccc2c1 | > 4 mM (inactive)
6 | Cc1nnsc1C(=O)O | > 4 mM (inactive)
7 | O=c1ccc2c([nH]1)CCCC2 | > 4 mM (inactive)
8 | OCc1ccc2c(c1)OCCCO2 | > 4 mM (inactive)
9 | CN1C(=O)C2CC=C(Cl)CC2C1=O (configuration not stated) | > 4 mM (inactive)
10 | O=C(Nc1cccnc1)c1c(F)c(F)c(F)c(F)c1F | > 4 mM (inactive)
11 | O=CN1CCN(C2CC(=O)N(c3ccccc3)C2=O)CC1 (configuration not stated) | > 4 mM (inactive)
12 | NNc1ncnc2sccc12 | > 4 mM (inactive)
13 | Cc1cc(C)c(-c2cc(C(F)(F)F)no2)c(=O)[nH]1 | > 4 mM (inactive)
14 | NC(=O)C1CCN(c2nccc(C(F)(F)F)n2)CC1 | > 4 mM (inactive)
15 | NC1=NC(=O)C(Cc2ccccc2)S1 (configuration not stated) | > 4 mM (inactive)
16 | COc1ccc2c3c1O[C@H]1C[C@@H](O)C=C[C@@]31CCN(C)C2 | > 4 mM (inactive)
17 | O=C(O)c1ccccc1C(=O)NCC1CCCO1 (configuration not stated) | > 4 mM (inactive)
18 | COc1ccc(C2(C)NC(=O)NC2=O)cc1 (configuration not stated) | > 4 mM (inactive)
19 | Cc1ccc2c(c1)CC[C@H]1CC(=O)CC[C@]21C | > 4 mM (inactive)
20 | O=C(Nc1ccncc1)c1c(F)cccc1F | > 4 mM (inactive)
21 | NS(=O)(=O)c1ccc2c3c(cccc13)C(=O)N2 | > 4 mM (inactive)
22 | CC(=O)O[C@H]1CC[C@@]2(C)C(CC[C@]3(C)C2CC=C2C4CC(C)(C)CC[C@]4(C)CC[C@]23C)C1(C)C (some centres not stated) | > 4 mM (inactive)
23 | CCC(=O)Nc1cc(C(C)C)c(O)cc1C | > 4 mM (inactive)
24 | COC(=O)c1ccc(N2CCOCC2)nc1 | > 4 mM (inactive)
25 | Cc1cc(C)n(-c2nncn2N)n1 | > 4 mM (inactive)

Row | SMILES | Kd
26 | CC(=O)O[C@H]1C[C@@H](OC(C)=O)C(C)(C)C2C[C@@H](OC(C)=O)[C@]3(C)C(CC[C@@]4(C)[C@H](c5ccoc5)OC(=O)[C@H]5O[C@]543)[C@]21C (some centres not stated) | > 4 mM (inactive)
27 | CC(CCC(=O)O)[C@H]1CCC2C3CC[C@@H]4CCCC[C@]4(C)C3CC[C@@]21C (some centres not stated) | > 4 mM (inactive)
28 | CCOC(=O)c1c(C)nc2c(C#N)cnn2c1C | > 4 mM (inactive)
29 | O=S1(=O)C=CC(N2CCCCC2)C1 (configuration not stated) | > 4 mM (inactive)
30 | COC(=O)CSc1ncnc2c(C)csc12 | > 4 mM (inactive)
31 | O=C(O)C1CCCCN1Cc1ccccc1 (configuration not stated) | > 4 mM (inactive)
32 | O=C1CCC(c2cccs2)=NN1 | > 4 mM (inactive)
33 | Cn1ncc2c(=O)n(CC(=O)c3ccccc3)cnc21 | > 4 mM (inactive)
34 | O=C(O)c1cc2ccccc2o1 | > 4 mM (inactive)
35 | COc1cccc(-c2nc(-c3ccccn3)no2)c1OC | > 4 mM (inactive)
36 | NC(=O)CSc1ccc(-c2ccco2)nn1 | > 4 mM (inactive)
37 | COC(=O)CC1NC2CCCCC2NC1=O (configuration not stated) | > 4 mM (inactive)
38 | Cn1cc(Cl)c(C(=O)NC2CCCC2)n1 | > 4 mM (inactive)
39 | COc1ccccc1-c1noc(-c2ccncc2)n1 | > 4 mM (inactive)
40 | COc1cc([C@@H]2c3cc4c(cc3[C@H](O)[C@H]3COC(=O)[C@H]23)OCO4)cc(OC)c1OC | > 4 mM (inactive)
41 | CSc1nnc2[nH]c(=O)cc(N)n12 | > 4 mM (inactive)
42 | O=S(=O)(N1CCCCC1)n1nnc2ccccc21 | > 4 mM (inactive)
43 | CCc1noc(C)c1C(=O)N1CCCC1 | > 4 mM (inactive)
44 | CNC(Cc1c[nH]c2ccccc12)C(=O)O (configuration not stated) | > 4 mM (inactive)
45 | COc1ccccc1NC(=O)c1snnc1C | > 4 mM (inactive)
46 | O=C(O)Cc1n[nH]c(=O)c2ccccc12 | > 4 mM (inactive)
47 | CCCN1CCC(N2CCC(O)CC2)CC1 | > 4 mM (inactive)
48 | Nc1ccc(Cc2ccc(N)cc2)cc1 | > 4 mM (inactive)
49 | COc1cc(OC)c(-c2nc3cnccc3n2C)cc1OC | > 4 mM (inactive)
50 | COC(=O)[C@@H]1OC(=O)C2OC23[C@@]1(C)CCC1[C@@]2(C)CCC(=O)C(C)(C)C2C[C@@H](OC(C)=O)[C@]13C (some centres not stated) | > 4 mM (inactive)

Row | SMILES | Kd
51 | O=C(c1ccco1)N1CCN(c2ccc(Cl)cc2)CC1 | > 4 mM (inactive)
52 | Nc1ccc(-c2cnco2)cc1 | > 4 mM (inactive)
53 | CC(=O)OCC(=O)[C@@]1(O)CCC2C3CC[C@@H]4C[C@H](O)CC[C@]4(C)C3C(=O)C[C@@]21C (some centres not stated) | > 4 mM (inactive)
54 | NC1=NC(=O)/C(=C\c2cccnc2)S1 | > 4 mM (inactive)
55 | COc1ccc(C[C@H]2NC[C@H](O)[C@H]2OC(C)=O)cc1 | > 4 mM (inactive)
56 | O=C(O)c1cccnc1N1CCCC1 | > 4 mM (inactive)
57 | Cn1c(=O)n(CC(=O)Nc2cccnc2)c2ccccc21 | > 4 mM (inactive)
58 | CC(CCC(=O)O)[C@H]1CCC2C3CC[C@@H]4C[C@H](O)CC[C@]4(C)C3CC[C@@]21C (some centres not stated) | > 4 mM (inactive)
59 | Cc1nc(-c2ccccc2)sc1C(N)=O | > 4 mM (inactive)
60 | COc1cccc(Oc2ccc(N)cn2)c1 | > 4 mM (inactive)
61 | O[C@H]1C=C2CCN3Cc4cc5c(cc4C(C23)[C@@H]1O)OCO5 (some centres not stated) | > 4 mM (inactive)
62 | Cc1nnc2n(c1=O)N=C(c1ccccc1)CS2 | > 4 mM (inactive)
63 | O=C1CCC(=O)N1CNc1ccccc1 | > 4 mM (inactive)
64 | CCN(CC)C(=O)c1n[nH]c(=O)c2ccccc12 | > 4 mM (inactive)
65 | Cc1cc(=O)[nH]c(NCc2cccnc2)n1 | > 4 mM (inactive)
66 | CC(=O)c1cc2c(cc1O)OC(C)(C)C=C2 | > 4 mM (inactive)
67 | Cc1nnsc1C(=O)Nc1ccccn1 | > 4 mM (inactive)
68 | Nc1nncn1C(=O)c1ccccc1Cl | > 4 mM (inactive)
69 | OCC1CNc2ccccc2O1 (configuration not stated) | > 4 mM (inactive)
70 | COc1ccc(-c2oc3ccccc3c(=O)c2O)cc1OC | > 4 mM (inactive)
71 | O=C(CSc1ncccn1)Nc1nccs1 | > 4 mM (inactive)
72 | O=C(NCc1ccco1)c1ccc(Br)s1 | > 4 mM (inactive)
73 | O=C(O)CCn1c(=O)oc2ccccc21 | > 4 mM (inactive)
74 | CN1CCC(NC(=S)NC2CC2)CC1 | > 4 mM (inactive)
75 | Cc1sc2nc[nH]c(=S)c2c1C | > 4 mM (inactive)

Row | SMILES | Kd
76 | Cc1cccc(CO)n1 | > 4 mM (inactive)
77 | CC(=O)Nc1ccc(S(=O)(=O)Nc2cc(C)on2)cc1 | > 4 mM (inactive)
78 | COc1ccc(-c2cc(=O)c3c(OC)c(OC)c(OC)c(OC)c3o2)cc1 | > 4 mM (inactive)
79 | CSc1nc(C)c(Oc2ccccc2)c(=O)n1C | > 4 mM (inactive)
80 | NCc1ccc(-c2ccccn2)s1 | > 4 mM (inactive)
81 | Cc1cc(NC(=O)c2ccccc2C(=O)O)no1 | > 4 mM (inactive)
82 | CN(C)c1nc(N)nc(-c2nc3ccccc3s2)n1 | > 4 mM (inactive)
83 | Cn1c(-c2ccccc2F)n[nH]c1=S | > 4 mM (inactive)
84 | CCNC(=S)Nc1c(C)n(C)n(-c2ccccc2)c1=O | > 4 mM (inactive)
85 | O=C(/C=C/c1ccccc1)NC1CCS(=O)(=O)C1 (configuration not stated) | > 4 mM (inactive)
86 | COC(=O)N(c1ccccc1)P1(=S)OCCO1 | > 4 mM (inactive)
87 | O=C(CSC1=NCCS1)N1CCc2ccccc21 | > 4 mM (inactive)
88 | CNCc1ccco1 | > 4 mM (inactive)
89 | c1ccc(-c2nsc(N3CCNCC3)n2)cc1 | > 4 mM (inactive)
90 | COc1cccc(-c2nc3ccc(O)cc3c(=O)o2)c1 | > 4 mM (inactive)
91 | Cc1[nH]c(=O)[nH]c(=O)c1N1CCOCC1 | > 4 mM (inactive)
92 | NCC(O)c1ccc(O)cc1 (configuration not stated) | > 4 mM (inactive)
93 | NC(=O)CSc1ccc(Br)cc1 | > 4 mM (inactive)
94 | CSc1nsc(SCc2cnc(C)nc2N)n1 | > 4 mM (inactive)
95 | NC(=O)C1CCN(C2CC(=O)NC2=O)CC1 (configuration not stated) | > 4 mM (inactive)
96 | CC(=O)C1CCC2C3CCC4C[C@H](O)CCC4(C)C3C[C@H](O)C12C (some centres not stated) | > 4 mM (inactive)
97 | C#CCCCCCCCCCCCC(=O)CC(O)COC(C)=O (configuration not stated) | > 4 mM (inactive)
98 | Cc1ccc(-c2nc(-c3cccnc3)no2)c(C)c1 | > 4 mM (inactive)
99 | COC(=O)C[C@H]1C(C)(C)C(=O)[C@@H]2CC3=C4CC(=O)O[C@@H](c5ccoc5)[C@]4(C)CCC3C1(C)C2=O (some centres not stated) | > 4 mM (inactive)
100 | CS(=O)(=O)N1CCN(C(=O)c2ccccc2)C1 | > 4 mM (inactive)

Row | SMILES | Kd
101 | COc1ccc2[nH]cc(CCN(C)C)c2c1 | > 4 mM (inactive)
102 | CCN1CCc2c(sc(N)c2C#N)C1 | > 4 mM (inactive)
103 | CP(C)(=O)CCC(=O)O | > 4 mM (inactive)
104 | O=C1CCC(=O)N1CN1CCOCC1 | > 4 mM (inactive)
105 | Cc1noc(C)c1C(=O)N1CCC(Cc2ccccc2)CC1 | > 4 mM (inactive)
106 | NC(=O)C(=O)NCc1ccc(Cl)cc1 | > 4 mM (inactive)
107 | COc1c2ccoc2nc2c(OC)c(OCC(O)C(C)(C)O)ccc12 (configuration not stated) | > 4 mM (inactive)
108 | S=C(CN1CCCC1=S)N1CCOCC1 | > 4 mM (inactive)
109 | NC(=O)C1CCN(C(=S)c2ccccc2)CC1 | > 4 mM (inactive)
110 | COC(=O)Nc1c(C)n(C)n(-c2ccccc2)c1=O | > 4 mM (inactive)
111 | CC(=O)NC(O)C(=O)c1ccccc1 (configuration not stated) | > 4 mM (inactive)
112 | NC1=NCc2ccccc21 | > 4 mM (inactive)
113 | Cn1nc(C(=O)Nc2cccnc2)cc1Cl | > 4 mM (inactive)
114 | COc1cc2c(cc1OC)C(=O)OC2 | > 4 mM (inactive)
115 | Cc1cc(-c2ccccc2)nc2cc(C(N)=O)nn12 | > 4 mM (inactive)
116 | Cc1n[nH]c(=S)n(/N=C/c2cccs2)c1=O | > 4 mM (inactive)
117 | c1ccc(CSc2ncccn2)cc1 | > 4 mM (inactive)
118 | C[C@H](CCC(=O)O)[C@H]1CCC2C3C(CC[C@@]21C)[C@@]1(C)CC[C@@H](O)C[C@H]1C[C@H]3O (some centres not stated) | > 4 mM (inactive)
119 | O=C(O)C1C(=O)NCC1c1ccccc1 (configuration not stated) | > 4 mM (inactive)
120 | CC(=O)Nc1cccc(-c2nnc(-c3ccccc3)o2)c1 | > 4 mM (inactive)
121 | O=C(O)c1csc(-c2ccccc2)n1 | > 4 mM (inactive)
122 | NCCc1nc2ccccc2[nH]1 | > 4 mM (inactive)
